Data: publication PMC10850145, “Hormonal steroids induce multidrug resistance and stress response genes in Neisseria gonorrhoeae by binding to MtrR” (Nature Communications, 2024)
Values joined by “and” are separate entries in the source; they are usually repeats but may differ in a detail not shown here. Equal values may be shown once. Read-outs that look alike come from different tables or passages of the source.

Tested on: mtrC-lacZ expression
Type: cell-based, Neisseria gonorrhoeae
Conditions: for mtrC-lacZ β-galactosidase activity, Mean: left block of sheet (mtrCDE); for β-galactosidase activity, Mean: second (right) untitled block of sheet Figure S10 (mtrC)
[1] = strain ΔmtrR + mtrR R176E, 6.25 µM hormone
[2] = strain ΔmtrR + mtrR R176E, 12.5 µM hormone
[3] = strain ΔmtrR + mtrR R176E, 25 µM hormone
[4] = strain ΔmtrR + mtrR R176E, 50 µM hormone
[5] = strain ΔmtrR + mtrR WT, 6.25 µM hormone
[6] = strain ΔmtrR + mtrR WT, 12.5 µM hormone
[7] = strain ΔmtrR + mtrR WT, 25 µM hormone
[8] = strain ΔmtrR + mtrR WT, 50 µM hormone

CC(=O)[C@H]1CC[C@H]2[C@@H]3CCC4=CC(=O)CC[C@]4(C)[C@H]3CC[C@]12C [Progesterone, progesterone] was tested. Which “β-galactosidase activity, mtrC-lacZ, Mean” value (strain WT (FA19/pLES94-mtrC), hormone 6.25 µM) did it give?
Its value is 97 Miller units.

And the “β-galactosidase activity, mtrC-lacZ, Mean” value (strain WT (FA19/pLES94-mtrC), hormone 12.5 µM)?
The value was 126 Miller units.

What about the “β-galactosidase activity, mtrC-lacZ, Mean” value (strain WT (FA19/pLES94-mtrC), hormone 25 µM) of the same compound?
Its value is 146 Miller units.

What about the “β-galactosidase activity, mtrC-lacZ, Mean” value (strain WT (FA19/pLES94-mtrC), hormone 50 µM) of the same compound?
Its value is 139 Miller units.

And the “mtrC-lacZ β-galactosidase activity, Mean” value (strain WT, 6.25 µM hormone)?
Its value is 108 Miller units.

And the “β-galactosidase activity, Mean” value (strain WT, 6.25 µM hormone)?
The value was 36 Miller units.

What about the “mtrC-lacZ β-galactosidase activity, Mean” value (strain WT, 12.5 µM hormone) of the same compound?
The value was 144 Miller units.

What about the “β-galactosidase activity, Mean” value (strain WT, 12.5 µM hormone) of the same compound?
The value was 47 Miller units.

What about the “mtrC-lacZ β-galactosidase activity, Mean” value (strain WT, 25 µM hormone) of the same compound?
The value was 194 Miller units.

What about the “β-galactosidase activity, Mean” value (strain WT, 25 µM hormone) of the same compound?
The value was 70 Miller units.

What about the “mtrC-lacZ β-galactosidase activity, Mean” value (strain WT, 50 µM hormone) of the same compound?
The value was 222 Miller units.

What about the “β-galactosidase activity, Mean” value (strain WT, 50 µM hormone) of the same compound?
The value was 97 Miller units.

And the “activation of mtrC” value (strain producing MtrR R176E)?
The value was “almost no activation”.

What about the “β-galactosidase activity, mtrC-lacZ, Mean” value (strain ΔmtrR (FA19 ∆mtrR/pLES94-mtrC), hormone 6.25 µM) of the same compound?
Its value is 210 Miller units.

And the “β-galactosidase activity, mtrC-lacZ, Mean” value (strain ΔmtrR (FA19 ∆mtrR/pLES94-mtrC), hormone 12.5 µM)?
Its value is 191 Miller units.

And the “β-galactosidase activity, mtrC-lacZ, Mean” value (strain ΔmtrR (FA19 ∆mtrR/pLES94-mtrC), hormone 25 µM)?
The value was 234 Miller units.

And the “β-galactosidase activity, mtrC-lacZ, Mean” value (strain ΔmtrR (FA19 ∆mtrR/pLES94-mtrC), hormone 50 µM)?
Its value is 188 Miller units.

And the “β-galactosidase activity, mtrC-lacZ, Mean” value (strain ΔmtrR + mtrR D171A (pGCC3-mtrR D171A), hormone 6.25 µM)?
The value was 146 Miller units.

And the “β-galactosidase activity, mtrC-lacZ, Mean” value (strain ΔmtrR + mtrR D171A (pGCC3-mtrR D171A), hormone 12.5 µM)?
The value was 142 Miller units.

What about the “β-galactosidase activity, mtrC-lacZ, Mean” value (strain ΔmtrR + mtrR D171A (pGCC3-mtrR D171A), hormone 25 µM) of the same compound?
Its value is 168 Miller units.

And the “β-galactosidase activity, mtrC-lacZ, Mean” value (strain ΔmtrR + mtrR D171A (pGCC3-mtrR D171A), hormone 50 µM)?
The value was 106 Miller units.

What about the “mtrC-lacZ β-galactosidase activity, Mean” value [1] of the same compound?
Its value is 217 Miller units.

What about the “β-galactosidase activity, Mean” value [1] of the same compound?
Its value is 91 Miller units.

What about the “mtrC-lacZ β-galactosidase activity, Mean” value [2] of the same compound?
The value was 208 Miller units.

What about the “β-galactosidase activity, Mean” value [2] of the same compound?
Its value is 92 Miller units.

What about the “mtrC-lacZ β-galactosidase activity, Mean” value [3] of the same compound?
Its value is 226 Miller units.

And the “β-galactosidase activity, Mean” value [3]?
The value was 111 Miller units.

What about the “mtrC-lacZ β-galactosidase activity, Mean” value [4] of the same compound?
Its value is 231 Miller units.

And the “β-galactosidase activity, Mean” value [4]?
The value was 98 Miller units.

And the “β-galactosidase activity, mtrC-lacZ, Mean” value (strain ΔmtrR + mtrR WT (pGCC3-mtrR), hormone 6.25 µM)?
The value was 84 Miller units.

And the “β-galactosidase activity, mtrC-lacZ, Mean” value (strain ΔmtrR + mtrR WT (pGCC3-mtrR), hormone 12.5 µM)?
The value was 89 Miller units.

What about the “β-galactosidase activity, mtrC-lacZ, Mean” value (strain ΔmtrR + mtrR WT (pGCC3-mtrR), hormone 25 µM) of the same compound?
The value was 113 Miller units.

What about the “β-galactosidase activity, mtrC-lacZ, Mean” value (strain ΔmtrR + mtrR WT (pGCC3-mtrR), hormone 50 µM) of the same compound?
The value was 129 Miller units.

And the “mtrC-lacZ β-galactosidase activity, Mean” value [5]?
The value was 95 Miller units.

And the “β-galactosidase activity, Mean” value [5]?
The value was 19 Miller units.

And the “mtrC-lacZ β-galactosidase activity, Mean” value [6]?
Its value is 111 Miller units.

And the “β-galactosidase activity, Mean” value [6]?
The value was 24 Miller units.

What about the “mtrC-lacZ β-galactosidase activity, Mean” value [7] of the same compound?
The value was 124 Miller units.

And the “β-galactosidase activity, Mean” value [7]?
The value was 34 Miller units.

What about the “mtrC-lacZ β-galactosidase activity, Mean” value [8] of the same compound?
The value was 160 Miller units.

And the “β-galactosidase activity, Mean” value [8]?
Its value is 45 Miller units.

And the “mtrC-lacZ β-galactosidase activity, Mean” value (strain ΔmtrR, 6.25 µM hormone)?
The value was 311 Miller units.

And the “β-galactosidase activity, Mean” value (strain ΔmtrR, 6.25 µM hormone)?
The value was 126 Miller units.

And the “mtrC-lacZ β-galactosidase activity, Mean” value (strain ΔmtrR, 12.5 µM hormone)?
The value was 285 Miller units.

What about the “β-galactosidase activity, Mean” value (strain ΔmtrR, 12.5 µM hormone) of the same compound?
The value was 129 Miller units.

What about the “mtrC-lacZ β-galactosidase activity, Mean” value (strain ΔmtrR, 25 µM hormone) of the same compound?
Its value is 297 Miller units.

What about the “β-galactosidase activity, Mean” value (strain ΔmtrR, 25 µM hormone) of the same compound?
Its value is 134 Miller units.

And the “mtrC-lacZ β-galactosidase activity, Mean” value (strain ΔmtrR, 50 µM hormone)?
Its value is 286 Miller units.

What about the “β-galactosidase activity, Mean” value (strain ΔmtrR, 50 µM hormone) of the same compound?
Its value is 97 Miller units.

And the “β-galactosidase activity, Miller units (single replicate)” value (from here on “β-galactosidase activity, Miller units”) (ΔmtrR + mtrR WT in trans, 6.25 µM, first data set (c15-c36))?
The value was 95 Miller units.

And the “β-galactosidase activity, Miller units” value (ΔmtrR + mtrR WT in trans, 6.25 µM, second data set (c53-c74))?
Its value is 19 Miller units and 16 Miller units and 17 Miller units and 23 Miller units.

And the “β-galactosidase activity, Miller units” value (ΔmtrR + mtrR WT in trans, 12.5 µM, first data set (c15-c36))?
Its value is 114 Miller units.

What about the “β-galactosidase activity, Miller units” value (ΔmtrR + mtrR WT in trans, 12.5 µM, second data set (c53-c74)) of the same compound?
Its value is 22 Miller units and 26 Miller units and 24 Miller units.

And the “β-galactosidase activity, Miller units” value (ΔmtrR + mtrR WT in trans, 25 µM, first data set (c15-c36))?
The value was 128 Miller units.

And the “β-galactosidase activity, Miller units” value (ΔmtrR + mtrR WT in trans, 25 µM, second data set (c53-c74))?
The value was 39 Miller units and 34 Miller units and 32 Miller units and 31 Miller units.

And the “β-galactosidase activity, Miller units” value (ΔmtrR + mtrR WT in trans, 50 µM, first data set (c15-c36))?
Its value is 194 Miller units.

And the “β-galactosidase activity, Miller units” value (ΔmtrR + mtrR WT in trans, 50 µM, second data set (c53-c74))?
Its value is 54 Miller units and 51 Miller units and 38 Miller units and 39 Miller units.

And the “β-galactosidase activity, Miller units” value (ΔmtrR, 6.25 µM, first data set (c15-c36))?
Its value is 324 Miller units and 312 Miller units and 315 Miller units and 294 Miller units.

What about the “β-galactosidase activity, Miller units” value (ΔmtrR, 6.25 µM, second data set (c53-c74)) of the same compound?
Its value is 161 Miller units and 130 Miller units and 118 Miller units and 97 Miller units.

And the “β-galactosidase activity, Miller units” value (ΔmtrR, 12.5 µM, first data set (c15-c36))?
Its value is 289 Miller units and 316 Miller units and 292 Miller units and 245 Miller units.

And the “β-galactosidase activity, Miller units” value (ΔmtrR, 12.5 µM, second data set (c53-c74))?
Its value is 170 Miller units and 117 Miller units and 123 Miller units and 105 Miller units.

And the “β-galactosidase activity, Miller units” value (ΔmtrR, 25 µM, first data set (c15-c36))?
The value was 397 Miller units and 288 Miller units and 270 Miller units and 234 Miller units.

And the “β-galactosidase activity, Miller units” value (ΔmtrR, 25 µM, second data set (c53-c74))?
The value was 195 Miller units and 111 Miller units and 136 Miller units and 96 Miller units.

What about the “β-galactosidase activity, Miller units” value (ΔmtrR, 50 µM, first data set (c15-c36)) of the same compound?
Its value is 318 Miller units and 329 Miller units and 263 Miller units and 234 Miller units.

And the “β-galactosidase activity, Miller units” value (ΔmtrR, 50 µM, second data set (c53-c74))?
Its value is 134 Miller units and 92 Miller units and 84 Miller units and 79 Miller units.
